Patent US11179450B2, “Long chain antigen containing interepitope sequence that promotes antigen presentation to T cells” (MIE UNIVERSITY, priority 2013, dated 2021)

Assays:
[1] = tested on: mERK2 9m specific CD8+ T cells; assay: Specific CD8+ T cell induction in mice, intracellular cytokine staining (mERK2 9m epitope); assay type: in vivo, BALB/c mice
Method: (§1) Long chain peptide antigens MEN, all containing three types of mouse CD8+ T cell epitope sequences (MA p265 (Sequence No. 27), NY p81 (Sequence No. 29), and mERK2 9m (Sequence No. 28)), were synthesized. The interepitope sequences between the respective epitopes were one to six consecutive tyrosines (Sequence Nos. 1 and 9-12). Vaccines containing the respective long chain peptide antigens were administered to mice in the same manner as in FIG. 1 and the frequencies of CD8+ T cells specific to the respective epitope sequences were measured by the intracellular cytokine staining method.
as §1, with “five” for “one”, “ten” for “six”, “13-15).” for “9-12).”
Each CHP/long chain peptide complex as the vaccine and the CpG oligo DNA as the adjuvant were administered at the same time to a mouse. Administration was performed by subcutaneous injection on the back of the mouse. As the dose, the CHP/long chain peptide complex was administered at 0.05 to 0.1 mg equivalent of long chain peptide per administration. The CpG oligo DNA was administered at 0.05 mg per administration. One week after the final administration, spleen cells were separated by the following procedure from each vaccine-administered mouse. The spleen was isolated from the mouse and removed of blood by rinsing with RPMI1640 medium. After the spleen was triturated using a glass slide, the released cells were collected in RPMI1640 medium. After centrifuging (400×g, 5 minutes, 4° C.), the supernatant was removed and the cells were treated for 1 minute by adding 2 mL of ACK solution. […]

[2] = tested on: CD11c+ cells (dendritic cells); assay: In vitro uptake of FAM-labeled long chain peptide antigens by antigen-presenting cells (dendritic cells); assay type: cell-based; details: FIG. 8, complexed with CHP, 10 μg/mL, mouse spleen cells, 60 minutes, in comparison to G6 and P6
Description: (§2) Long chain peptide antigens MEN, all containing three types of mouse CD8+ T cell epitope sequences (MA p265 (Sequence No. 27), NY p81 (Sequence No. 29), and mERK2 9m (Sequence No. 28)), were synthesized. The interepitope sequences between the respective epitopes were respectively six consecutive tyrosines (Y6), six consecutive glycines (G6), or six consecutive prolines (P6) (Sequence Nos. 1-3). Each long chain peptide antigen, labeled with the fluorescent dye FAM, was complexed with CHP and administered in vitro to mouse dendritic cells and mouse macrophages. After 60 minutes, the fluorescence uptakes into the respective cells were measured by flow cytometry with the P5 fraction in the figure being deemed to correspond to the dendritic cells and the P6 fraction in the figure being deemed to correspond to the macrophages.
(§3) In vitro uptake of the long chain peptide antigens by antigen-presenting cells was measured as follows. Each long chain peptide labeled with a fluorescent dye was complexed with CHP by the method described above. Spleen cells separated from a normal mouse were added at 1×10^6 cells/0.5 mL/well to a 24-well plate. […] The uptake of the fluorescence-labeled long chain peptide antigens by CD11c^+ cells (dendritic cells) and F4/80^+ cells (macrophages) were observed using flow cytometry.

[3] = tested on: F4/80+ cells (macrophages); assay: In vitro uptake of FAM-labeled long chain peptide antigens by antigen-presenting cells (macrophages); assay type: cell-based; details: FIG. 8, complexed with CHP, 10 μg/mL, mouse spleen cells, 60 minutes, in comparison to G6 and P6
Description: as §2, §3

[4] = tested on: F4/80+ cells (macrophages); assay: Uptake of FAM-labeled long chain peptide antigens in individual animals, regional lymph node macrophages; assay type: in vivo, BALB/c mice; details: FIG. 9, complexed with CHP, subcutaneous, 16 hours after administration
Method: The same FAM-labeled long chain peptide antigens as those in FIG. 8 were complexed with CHP and administered subcutaneously to mice. After 16 hours, cells were collected from a regional lymph node of the administration site, and the fluorescence uptakes into dendritic cells and mouse macrophages were measured by flow cytometry with the P4 fraction in the figure being deemed to correspond to the dendritic cells and the P5 fraction in the figure being deemed to correspond to the macrophages.
A test of uptake of long chain peptide antigens by antigen-presenting cells in individual animals was performed as follows. Each long chain peptide was fluorescence-labeled, complexed with a CHP nanogel, administered subcutaneously to BALB/c mice. 16 hours after administration, cells were collected from lymph nodes and after staining with the anti-CD11c antibody and the anti-F4/80 antibody, the uptake of the fluorescence-labeled long chain peptide antigens by CD11c^+ cells (dendritic cells) and F4/80^+ cells (macrophages) was analyzed by flow cytometry.

SNPARYEFLYYYYYYQYIHSANVLYYYYYYRGPESRLL (Long chain peptide antigen, containing three types of mouse CD8+ T cell epitope sequences (MA p265, NY p81, and mERK2 9m)) [MEN(Y6)]
induction of specific CD8+ T cells, mERK2 9m (second epitope) ([1]; FIG. 6, comparing one to six tyrosines): observed to some degree | induction of specific CD8+ T cells, mERK2 9m (second epitope) ([1]; FIG. 7, comparing five to ten tyrosines): highest | fluorescence uptake into dendritic cells [2]: significantly higher | fluorescence uptake into macrophages [3]: significantly higher | fluorescence uptake into macrophages of the regional lymph node [4]: clearly observed
